Ends that are not written are not given here.
Legend:
[1] = tested on: high-affinity thrombin receptor; assay: Competition for specific [125I]-alpha-thrombin binding to ME cells; parameters: species or system mouse; conditions: for fold higher concentration than p508-530 required for 30% inhibition of [125I]-alpha-thrombin binding: ME cells; for Conc. at Maximal % Inhibition / Concentration Required for 30% Inhibition / Maximal % Inhibition: [125I]-alpha-thrombin (1 nM), quiescent ME cells; for Concentration Required for 30% Inhibition / Maximal % Inhibition: 23° C.; for Maximal % Inhibition: at the conc. printed below the value
Description: Specific techniques whereby the competitive binding studies were performed are set out below. Human alpha-thrombin was iodinated in the presence of benzamidine (an active-site competitive inhibitor), lactoperoxidase, and Na[^125I]. […] These iodinated preparations retained approximately 80% of their fibrinogen clotting activity. The ability of the synthetic peptides to compete for specific [^125I]-alpha-thrombin binding to fibroblasts was measured on nonproliferating, mitogenically responsive cultures in 24 well plates (Falcon) at a cell density of approximately 5×10^4 cells/cm^2 as previously described (Carney and Cunningham, Cell, 15:1341-1349 (1978)). The medium on the cells was changed to binding medium (serum-free DV medium containing 0.5% (w/v) bovine serum albumin buffered with 15 mM HEPES at pH 7.0). The cells were equilibrated at 23° C. for 30 minutes, and the medium was changed to binding medium containing [^125I]-alpha-thrombin (10 ng/ml) with the indicated concentrations of the peptides. After 2 hours at 23° C., the assay was terminated by quickly rinsing the cells four times with ice-cold PBS. The cells were dissolved in 1 ml of 0.5 N NaOH and the total radioactivity was measured using a Beckman gamma counter. Nonspecific binding was measured as the radioactivity bound to cultures after incubation in binding medium containing a 100-fold excess of unlabeled alpha-thrombin. Specific binding was calculated by subtracting nonspecific binding from total radioactivity bound to cultures. […] Scatchard analysis of the direct binding of [^125I]-labeled p508-530 indicated a KD of approximately 6×10^−8 M (data not shown). […] Various concentrations of peptides and [^125I]-alpha-thrombin (1 nM) were incubated with quiescent ME cells for […] at 23° C. Specific binding of [^125I]-alpha-thrombin was defined as described in Example 3.

NIL cells = assay: [3H]-thymidine incorporation (DNA synthesis) in quiescent NIL cells; format: cell-based, hamster; conditions: for effect on alpha-thrombin stimulated DNA synthesis: quiescent NIL cells, increasing peptide concentrations, 2 and 4 nM alpha-thrombin, FIG. 6
Description: Primary cultures of fibroblasts were prepared from 9- to 13-day old embryos of NIH-swiss outbred mice as described by Carney and Cunningham, Cell, 15:1341-1349, (1978). NIL cells, an established strain of hamster fibroblasts, were maintained as stock cultures and subcultured every four days. All cells were grown in Dulbecco-Vogt modified Eagle's (DV) medium supplemented with 10% (v/v) bovine calf serum (CS), in a humidified atmosphere of 5% CO2 in air at 37° C. Quiescent cultures were prepared by subculturing stock cells from 100 mm dishes, using 0.05% (w/v) trypsin and 0.02% EDTA (w/v) in phosphate-buffered saline (PBS) and plating them in 24-well culture plates in DV medium supplemented with 10% (v/v) CS at 6×10^4 cells/cm^2. After allowing the cells to attach overnight, the medium was removed and the cells were rinsed with DV medium containing no serum. The cells were incubated in this serum-free medium for 48 hours before the indicated experiments. […] The effects of the synthetic peptides on DNA synthesis were determined by measuring the incorporation of methyl-[^3H]-thymidine (TdR, ICN Pharmaceuticals, Irvine, Calif.) during a 2 hour incubation generally from 22 hours after addition of peptides and/or thrombin (Stiernberg et al., J. Cell Physiol., 120:209-285 (1984)). After incubation, the cells were extracted and rinsed with ice-cold 10% (w/v) trichloroacetic acid (TCA). The acid precipitable material was dissolved overnight in 0.5 ml 0.5 N KOH at 23° C. HCl (1 N), 0.25 ml, was added and the solution was counted in 10 ml of RediSolv-HPb (Beckman Instruments, Houston, Tex.) scintillation fluid. The present inventors first tested the ability of p508-530 to stimulate DNA synthesis in non-proliferating cultures of ME or NIL cells. […] However, in combination with 2 nM alpha-thrombin, 0.1 uM p508-530 stimulated a 6- or greater than 2-fold increase in incorporation of [^3H]-thymidine into DNA in ME cells when compared to parallel cultures left untreated or treated with alpha-thrombin alone, respectively (FIG. 4A). A similar mitogenic stimulation was also observed in NIL hamster cells, although it required a slightly higher concentration of thrombin and peptides (FIG. 4B). […] With NIL cells, a similar correlation was observed between the mitogenic concentrations of p508-530 and the concentrations required to inhibit thrombin binding, although at higher levels than required with ME cells. […] It was predicted, therefore, that if p508-530 was generating a receptor occupancy-related signal, its addition to cells in combination with PMA should stimulate mitogenesis. […] This stimulation occurred at approximately the same concentration of peptide as that required to stimulate DNA synthesis in the presence of low concentrations of alpha-thrombin. […]

ME cells = assay: [3H]-thymidine incorporation (DNA synthesis) in quiescent ME cells; format: cell-based, mouse; conditions: for inhibition of alpha-thrombin stimulated DNA synthesis: 625 nM peptide, FIG. 7
Description: Primary cultures of fibroblasts were prepared from 9- to 13-day old embryos of NIH-swiss outbred mice as described by Carney and Cunningham, Cell, 15:1341-1349, (1978). NIL cells, an established strain of hamster fibroblasts, were maintained as stock cultures and subcultured every four days. All cells were grown in Dulbecco-Vogt modified Eagle's (DV) medium supplemented with 10% (v/v) bovine calf serum (CS), in a humidified atmosphere of 5% CO2 in air at 37° C. Quiescent cultures were prepared by subculturing stock cells from 100 mm dishes, using 0.05% (w/v) trypsin and 0.02% EDTA (w/v) in phosphate-buffered saline (PBS) and plating them in 24-well culture plates in DV medium supplemented with 10% (v/v) CS at 6×10^4 cells/cm^2. After allowing the cells to attach overnight, the medium was removed and the cells were rinsed with DV medium containing no serum. The cells were incubated in this serum-free medium for 48 hours before the indicated experiments. […] The effects of the synthetic peptides on DNA synthesis were determined by measuring the incorporation of methyl-[^3H]-thymidine (TdR, ICN Pharmaceuticals, Irvine, Calif.) during a 2 hour incubation generally from 22 hours after addition of peptides and/or thrombin (Stiernberg et al., J. Cell Physiol., 120:209-285 (1984)). After incubation, the cells were extracted and rinsed with ice-cold 10% (w/v) trichloroacetic acid (TCA). The acid precipitable material was dissolved overnight in 0.5 ml 0.5 N KOH at 23° C. HCl (1 N), 0.25 ml, was added and the solution was counted in 10 ml of RediSolv-HPb (Beckman Instruments, Houston, Tex.) scintillation fluid. The present inventors first tested the ability of p508-530 to stimulate DNA synthesis in non-proliferating cultures of ME or NIL cells. […] In order to explain the mechanism by which p517-520 was able to inhibit thrombin-mediated mitogenesis, the inventors measured the ability of increasing concentrations of alpha-thrombin to stimulate DNA synthesis in cultures to which a constant concentration (625 nM) of p517-520 had been added (FIG. 7). […]

fibroblast = conditions: compared with fibronectin-specific peptides; cited from earlier work

Substance | mitogenesis (summary statement) (NIL cells) | effect on alpha-thrombin stimulated DNA synthesis (NIL cells) | fold higher concentration than p508-530 required for 30% inhibition of [125I]-alpha-thrombin binding [1] | Conc. at Maximal % Inhibition [1] | Concentration Required for 30% Inhibition [1] | Maximal % Inhibition [1] | promotion of fibroblast attachment (fibroblast) | further results
Arg-Gly-Ala-Ser (RGAS; printed: Arg-Gly-Ala-Ser) [reference compound] | – | – | – | – | – | – | – | competition with [125I]-alpha-thrombin for binding ([1]; concentration of 1.3 uM): did not compete
Arg-Gly-Asp-Ala (RGDA; Fragment of human prothrombin) [p517-520] | without inducing mitogenesis | inhibited DNA synthesis | 50 fold | (2.7 uM) | 300 nM | 50% | comparable to that induced by fibronectin-specific peptides | molar excess of peptide required for inhibition of alpha-thrombin stimulation (ME cells): 500-1000 fold; inhibition of alpha-thrombin stimulated DNA synthesis (ME cells; 0.8 nM alpha-thrombin): approximately 75%; inhibition of alpha-thrombin stimulated DNA synthesis (ME cells; 13.0 nM alpha-thrombin): ~35%
DACEGDSGGPFV [p519-530, peptide representing residues 519 to 530 of the B-chain region of human prothrombin] | retains the ability to mediate mitogenesis but to a much lesser degree than p508-530 | enhanced DNA synthesis | 33 fold | (800 Nm) | 200 nM | 51% | – | –
p510-526: peptide representing 510-526 of human prothrombin (TKPDEGKRGDACEGDSG; Fragment of human prothrombin) | – | – | – | – | – | – | comparable to that induced by fibronectin-specific peptides | –
p516-522: peptide representing 516-522 of human prothrombin (KRGDACE; Fragment of human prothrombin) | – | – | – | – | – | – | comparable to that induced by fibronectin-specific peptides | –

Reference: patent publication US6630572B1, “Thrombin derived polypeptides: compositions and methods for use” (The Board of Regents, University of Texas Syatems, priority 1986, dated 2003)
